Source: the RepoRT retention time repository

test: HILIC, Waters ACQUITY UPLC BEH Amide, 100 × 2.1 mm, 1.7 µm; A: water + 0.125% formic acid + 10 mM ammonium formate; B: 5% water + 95% acetonitrile + 0.125% formic acid + 10 mM ammonium formate; gradient (min/%B) 0/100 2/100 7.7/70 9.5/40 10.25/30 12.75/100 17/100; settings: stereoisomer not certain

LC retention time [min] | SMILES
9.72 | NC(Cc1ccc(OP(=O)(O)O)cc1)C(=O)O (centres undefined) [Phosphotyrosine]
1.15 | O=C(O)c1ccccc1C(=O)O [Phthalic acid]
7.3 | O=C1CCC(C(=O)N2CSCC2C(=O)O)N1 (centres undefined) [Pidotimod]
7.83 | O=C(O)C1CCCCN1 (centres undefined) [Pipecolic acid]
1.1 | O=C(C=CC=Cc1ccc2c(c1)OCO2)N1CCCCC1 [Piperine]
1.36 | O=C(O)CC(O)CC(O)C=Cc1c(C2CC2)nc2ccccc2c1-c1ccc(F)cc1 (centres undefined) [Pitavastatin]
7.4 | NCc1[nH]cc(CCC(=O)O)c1CC(=O)O [Porphobilinogen]
8.75 | NC(=O)CCC(NC(=O)C1CCCN1)C(=O)O (centres undefined) [Pro-Gln]
0.97 | CC(=O)C1CCC2C3CCC4=CC(=O)CCC4(C)C3CCC12C (centres undefined) [Progesterone]
8.6 | O=C(O)C1CC(O)CN1C(=O)C1CCCN1 (centres undefined) [Proline-hydroxyproline]
7.83 | O=C(O)C1CCCN1 (centres undefined) [Proline]
7.7 | Cc1ncc(COP(=O)(O)O)c(C=O)c1O [Pyridoxal-5-phosphate]
2.18 | Cc1ncc(CO)c(C=O)c1O [Pyridoxal]
8.71 | O=C1CCC(C(=O)O)N1 (centres undefined) [Pyroglutamic acid]
2.16 | O=C(O)c1cccnc1C(=O)O [Quinolinic acid]
2.11 | CCN1CCCC1CNC(=O)c1c(O)c(Cl)cc(Cl)c1OC (centres undefined) [Raclopride]
1.4 | CCOC(=O)C(CCc1ccccc1)NC(C)C(=O)N1C(C(=O)O)CC2CCCC21 (centres undefined) [Ramipril]
5.18 | CNC(=C[N+](=O)[O-])NCCSCc1ccc(CN(C)C)o1 [Ranitidine]
1.01 | CCOc1cc(CC(=O)NC(CC(C)C)c2ccccc2N2CCCCC2)ccc1C(=O)O (centres undefined) [Repaglinide]
1.11 | CC(C=CC1=C(C)CCCC1(C)C)=CC=CC(C)=CC(=O)O [Retinoic acid]
2.76 | COC1C=COC2(C)Oc3c(C)c(O)c4c(O)c(c5c(c4c3C2=O)=NC2(CCN(CC(C)C)CC2)N=5)NC(=O)C(C)=CC=CC(C)C(O)C(C)C(O)C(C)C(OC(C)=O)C1C (centres undefined) [Rifabutin]
1.81 | COC1C=COC2(C)Oc3c(C)c(O)c4c(O)c(c(C=NN5CCN(C6CCCC6)CC5)c(O)c4c3C2=O)NC(=O)C(C)=CC=CC(C)C(O)C(C)C(O)C(C)C(OC(C)=O)C1C (centres undefined) [Rifapentine]
1.18 | COC1C=COC2(C)Oc3c(C)c(O)c4c(O)c(c5c(nc6cc(C)ccn65)c4c3C2=O)NC(=O)C(C)=CC=CC(C)C(O)C(C)C(O)C(C)C(OC(C)=O)C1C (centres undefined) [Rifaximin]

The next lines start with the compound.

SMILES | LC retention time [min]
C=C(OP(=O)(O)O)C(=O)O [Phosphoenolpyruvic acid] | 9.05
O=C(O)CP(=O)(O)O [Phosphonoacetic acid] | 9.73
CNC(=O)Oc1ccc2c(c1)C1(C)CCN(C)C1N2C (centres undefined) [Physostigmine] | 3.17
CCCCCCCCCCCCCCC(O)C(O)C(N)CO (centres undefined) [Phytosphingosine] | 5.18
CC(C)(O)C1C2OC(=O)C1C1(O)CC3OC34C(=O)OC2C14C (centres undefined) [Picrotin] | 1.21
CCC1C(=O)OCC1Cc1cncn1C (centres undefined) [Pilocarpine] | 2.23
CC(N=C(NC#N)Nc1ccncc1)C(C)(C)C (centres undefined) [Pinacidil] | 1.49
CCc1ccc(CCOc2ccc(CC3SC(=O)NC3=O)cc2)nc1 (centres undefined) [Pioglitazone] | 1.11
Cc1nc2ccccn2c(=O)c1CCN1CCC(C(=O)c2ccc(F)cc2)CC1 [Pirenperone] | 3.5
CN1C(C(=O)Nc2ccccn2)=C(O)c2ccccc2S1(=O)=O [Piroxicam] | 1.02
CN1CCC(=C2c3ccccc3CCc3sccc32)CC1 [Pizotifen] | 2.33
CCCNC1CCc2nc(N)sc2C1 (centres undefined) [Pramipexole] | 5.7
CCC(C)C(=O)OC1CC(O)C=C2C=CC(C)C(CCC(O)CC(O)CC(=O)O)C21 (centres undefined) [Pravastatin] | 1.8
O=C1CN=C(c2ccccc2)c2cc(Cl)ccc2N1CC1CC1 [Prazepam] | 1.07
COc1cc2nc(N3CCN(C(=O)c4ccco4)CC3)nc(N)c2cc1OC [Prazosin] | 3.75
CNNCc1ccc(C(=O)NC(C)C)cc1 [Procarbazine] | 4.61
CN1CCN(CCCN2c3ccccc3Sc3ccc(Cl)cc32)CC1 [Prochlorperazine] | 2.56
CCC(=O)Nc1ccc(Cl)c(Cl)c1 [Propanil] | 1.08
CCC(=O)OC(CC(=O)[O-])C[N+](C)(C)C (centres undefined) [Propionylcarnitine] | 6.41
CCC(=O)OC(Cc1ccccc1)(c1ccccc1)C(C)CN(C)C (centres undefined) [Propoxyphene] | 2.01
COc1cc(C=Cc2ccc(O)cc2)cc(OC)c1 [Pterostilbene] | 0.98

SMILES | LC retention time [min]
c1ncc2[nH]cnc2n1 [Purine] | 2.44
NCCCCN [Putrescine] | 9.3
CCOC(=O)COc1cc(-c2nn(C)c(OC(F)F)c2Cl)c(F)cc1Cl [Pyrafluefen-ethyl] | 1.02
c1ccncc1 [Pyridine] | 6.63
Cc1ncc(CO)c(CN)c1O [Pyridoxamine] | 8.1
Cc1ncc(CO)c(CO)c1O [Pyridoxine] | 3.78
O=C(O)c1ccc[nH]1 [Pyrrole-2-carboxylic acid] | 5.66
CC(=O)OCC1OC(Oc2c(-c3ccc(O)c(O)c3)oc3cc(O)cc(O)c3c2=O)C(O)C(O)C1O (stereo not drawn) [Quercetin-3-O-beta-glucopyranosyl-6'-acetate] | 4.61
CC1OC(Oc2c(-c3ccc(O)c(O)c3)oc3cc(O)cc(O)c3c2=O)C(O)C(O)C1O (centres undefined) [Quercetin-3-ramnoside] | 4.7
OCCOCCN1CCN(C2=Nc3ccccc3Sc3ccccc32)CC1 [Quetiapine] | 2.54
COCCCOc1ccnc(CS(=O)c2nc3ccccc3[nH]2)c1C (centres undefined) [Rabeprazole] | 2.44
CC(=O)SCC(Cc1ccccc1)C(=O)NCC(=O)OCc1ccccc1 (centres undefined) [Racecadotril] | 0.95
OCC1OC(OCC2OC(OC3(CO)OC(CO)C(O)C3O)C(O)C(O)C2O)C(O)C(O)C1O (centres undefined) [Raffinose] | 9.17
Cc1nc2ccc(CN(C)c3ccc(C(=O)NC(CCC(=O)O)C(=O)O)s3)cc2c(=O)[nH]1 (centres undefined) [Raltitrexed] | 7.35
COc1ccccc1OCC(O)CN1CCN(CC(=O)Nc2c(C)cccc2C)CC1 (centres undefined) [Ranolazine] | 2.79
CC(Cc1ccccc1)(NC(=O)CN)c1ccccc1 (centres undefined) [Remacemide] | 4.41
Oc1ccc(C=Cc2cc(O)cc(O)c2)cc1 [Resveratrol] | 1.41
Cc1cc2nc3c(=O)[nH]c(=O)nc-3n(CC(O)C(O)C(O)CO)c2cc1C (centres undefined) [Riboflavin] | 6
Nc1nc2ccc(OC(F)(F)F)cc2s1 [Riluzole] | 1.03
CC1CN(CCCn2c3ccccc3c3ccccc32)CC(C)N1 (centres undefined) [Rimcazole] | 2.87
